Results taken from patent US20240299412A1, “DRUG FORMULATIONS OF 4-(3,3-DIFLUORO-2,2-DIMETHYL-PROPANOYL) -3,5-DIHYDRO-2H-PYRIDO[3,4-f][1,4]OXAZEPINE-9-CARBONITRILE” (Genzyme Corporation, priority 2023, published 2024).

What was measured:
Type in all cases: physicochemical
Solid form screening = settings: 96 solid form screening experiments
Protocol: A total of 96 solid form screening experiments were performed using different crystallization or solid transformation methods.

Cohesion evaluation = assay: Cohesion evaluation
From the text: Different options were explored to improve the cohesion property of the tablet, for example, by change of lactose and mannitol grades (standard grade in place of Spray Dried grade), using anhydrous lactose in place of monohydrate lactose Spray-Dried, using different ratios of lactose/mannitol, or using pregelatinized corn starch instead of mannitol, but only a decrease of tablet cohesion was observed.

[1] = pKa measurement (Sirius T3, UV metric method); settings: MeOH as solvent, Yasuda-Shedlovsky extrapolation, ionic strength 0.176M, 28.9° C., to be taken as reference (effective range pH 2-12)
Protocol: pKa. The pKa was measured by a Sirius pKa log P/D tester (model: T3) with a UV detector (UV metric method) using MeOH as solvent.
In addition, the pKa value of Compound (1) starting material was measured to be 1.68 by a Sirius pKa log P/D tester (model: T3) with a UV detector (UV metric method) using MeOH as solvent. The pKa value should be taken as reference because the effective pH range of UV metric method is pH 2-12.

crystal forms observed from screening (Solid form screening): Only one crystal form
cohesion property of the drug substance (Cohesion evaluation): very low cohesion property
pKa [1]: 1.68
Compound: CC(C)(C(=O)N1CCOc2c(C#N)cncc2C1)C(F)F [Compound 1, 4-(3,3-difluoro-2,2-dimethyl-propanoyl)-3,5-dihydro-2H-pyrido[3,4-f][1,4]oxazepine-9-carbonitrile]
